From article PMC8155022 (Scientific Reports, 2021)

What was measured:
TRα = TRα (Homo sapiens, UniProt P10827); experiment: nuclear receptor cellular GAL4 reporter assay; assay type: cell-based; settings: agonist and antagonist mode; read-out: potency in agonist and antagonist mode
PPARβ = molecular target: T1, PPARβ (Homo sapiens, UniProt Q03181); experiment: nuclear receptor cellular GAL4 reporter assay; assay type: cell-based; settings: agonist and antagonist mode; read-out: potency in agonist and antagonist mode
T1 construct: expressed in transfected cells

ERα = molecular target: T2, ERα (Homo sapiens, UniProt P03372); experiment: nuclear receptor cellular GAL4 reporter assay; assay type: cell-based; settings: agonist and antagonist mode; read-out: potency in agonist and antagonist mode
T2 construct: expressed in transfected cells

ERβ = molecular target: T3, ERβ (Homo sapiens, UniProt Q92731); experiment: nuclear receptor cellular GAL4 reporter assay; assay type: cell-based; settings: agonist and antagonist mode; read-out: potency in agonist and antagonist mode
T3 construct: expressed in transfected cells

PR = molecular target: T4, PR (Homo sapiens, UniProt P06401); experiment: nuclear receptor cellular GAL4 reporter assay; assay type: cell-based; settings: agonist and antagonist mode; read-out: potency in agonist and antagonist mode
T4 construct: expressed in transfected cells

CCKA (h) (CCK1) = molecular target: T5, CCKA (h) (CCK1) (Homo sapiens, UniProt P32238); experiment: Cerep panel; assay type: binding
T5 construct: purchased Cerep (receptors, ion channels, transporters); Eurofins Panlabs (kinases)
T5 sequence (P32238 whole entry): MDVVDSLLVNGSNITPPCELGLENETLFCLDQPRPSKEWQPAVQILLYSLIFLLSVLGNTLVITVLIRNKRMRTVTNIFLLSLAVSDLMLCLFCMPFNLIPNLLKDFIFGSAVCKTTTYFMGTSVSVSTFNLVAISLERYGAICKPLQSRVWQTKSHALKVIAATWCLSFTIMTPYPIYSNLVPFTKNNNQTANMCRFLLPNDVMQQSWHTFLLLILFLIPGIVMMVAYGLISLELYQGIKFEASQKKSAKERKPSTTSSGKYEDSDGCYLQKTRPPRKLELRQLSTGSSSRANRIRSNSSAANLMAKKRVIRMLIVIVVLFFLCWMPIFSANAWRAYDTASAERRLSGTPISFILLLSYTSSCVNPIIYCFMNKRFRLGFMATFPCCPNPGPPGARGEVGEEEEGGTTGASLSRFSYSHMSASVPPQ
Description: (§1) A panel of 52 different receptors, ion channels and transporters was tested by Cerep, Inc. (Redmond, WA).

H2 (h) = molecular target: T6, H2 (h) (Homo sapiens, UniProt P25021); experiment: Cerep panel; assay type: binding
T6 construct: purchased Cerep (receptors, ion channels, transporters); Eurofins Panlabs (kinases)
T6 sequence (P25021 whole entry): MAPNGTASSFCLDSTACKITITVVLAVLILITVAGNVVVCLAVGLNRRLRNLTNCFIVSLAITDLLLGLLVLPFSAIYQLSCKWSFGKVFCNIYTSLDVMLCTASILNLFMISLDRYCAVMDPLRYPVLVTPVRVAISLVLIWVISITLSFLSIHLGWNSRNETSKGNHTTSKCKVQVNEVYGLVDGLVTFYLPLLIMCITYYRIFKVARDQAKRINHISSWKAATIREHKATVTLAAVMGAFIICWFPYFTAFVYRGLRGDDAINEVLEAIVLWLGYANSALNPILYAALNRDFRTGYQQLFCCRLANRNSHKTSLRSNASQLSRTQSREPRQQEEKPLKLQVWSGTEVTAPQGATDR
Description: as §1

MC4 (h) = molecular target: T7, MC4 (h) (Homo sapiens, UniProt P32245); experiment: Cerep panel; assay type: binding
T7 construct: purchased Cerep (receptors, ion channels, transporters); Eurofins Panlabs (kinases)
Description: as §1

NK3 (h) = molecular target: T8, NK3 (h) (Homo sapiens, UniProt P29371); experiment: Cerep panel; assay type: binding
T8 construct: purchased Cerep (receptors, ion channels, transporters); Eurofins Panlabs (kinases)
Description: as §1

Y2 (h) = molecular target: T9, Y2 (h) (Homo sapiens, UniProt P49146); experiment: Cerep panel; assay type: binding
T9 construct: purchased Cerep (receptors, ion channels, transporters); Eurofins Panlabs (kinases)
Description: as §1

5-HT5A (h) = molecular target: T10, 5-HT5A (h) (Homo sapiens, UniProt P47898); experiment: Cerep panel; assay type: binding
T10 construct: purchased Cerep (receptors, ion channels, transporters); Eurofins Panlabs (kinases)
T10 sequence (P47898 whole entry): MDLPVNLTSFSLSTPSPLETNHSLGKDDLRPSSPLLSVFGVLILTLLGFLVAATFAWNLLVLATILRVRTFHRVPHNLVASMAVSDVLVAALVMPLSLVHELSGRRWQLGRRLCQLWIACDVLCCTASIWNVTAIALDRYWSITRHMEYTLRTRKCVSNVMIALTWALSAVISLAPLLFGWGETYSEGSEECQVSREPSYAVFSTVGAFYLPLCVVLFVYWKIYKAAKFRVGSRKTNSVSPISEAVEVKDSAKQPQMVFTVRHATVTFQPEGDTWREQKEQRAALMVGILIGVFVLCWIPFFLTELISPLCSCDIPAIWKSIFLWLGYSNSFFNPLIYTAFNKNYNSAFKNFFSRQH
Description: as §1

5HT1A = 5HT1A (Homo sapiens, UniProt P08908); experiment: GPCR panel, cAMP or calcium FLIPR assays; assay type: cell-based
Chain of 5HT1A (P08908 whole entry, species assumed): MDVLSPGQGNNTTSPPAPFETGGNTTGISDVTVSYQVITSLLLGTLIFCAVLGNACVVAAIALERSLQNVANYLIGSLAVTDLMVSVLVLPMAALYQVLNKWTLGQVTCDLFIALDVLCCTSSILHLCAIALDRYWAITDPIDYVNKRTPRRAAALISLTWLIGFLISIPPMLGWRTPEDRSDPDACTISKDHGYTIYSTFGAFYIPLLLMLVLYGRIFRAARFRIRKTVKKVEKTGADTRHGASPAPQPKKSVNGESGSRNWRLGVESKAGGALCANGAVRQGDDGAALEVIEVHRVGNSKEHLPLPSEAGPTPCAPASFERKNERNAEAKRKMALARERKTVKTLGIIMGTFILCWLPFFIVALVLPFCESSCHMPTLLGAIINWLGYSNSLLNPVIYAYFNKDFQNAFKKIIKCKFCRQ
Description: 28 GPCRs were evaluated through cAMP or calcium FLIPR assays[67]. A panel of 52 different receptors, ion channels and transporters was tested by Cerep, Inc. (Redmond, WA).

CCKA = CCKA (Homo sapiens, UniProt P32238); experiment: GPCR panel, cAMP or calcium FLIPR assays; assay type: cell-based
Description: (§2) 28 GPCRs were evaluated through cAMP or calcium FLIPR assays[67].

D1 = D1 (Homo sapiens, UniProt P21728); experiment: GPCR panel, cAMP or calcium FLIPR assays; assay type: cell-based
Description: as §2

D2L = D2L (Homo sapiens, UniProt P14416); experiment: GPCR panel, cAMP or calcium FLIPR assays; assay type: cell-based
Description: as §2

M2 = M2 (Homo sapiens, UniProt P08172); experiment: GPCR panel, cAMP or calcium FLIPR assays; assay type: cell-based
Chain of M2 (P08172 whole entry): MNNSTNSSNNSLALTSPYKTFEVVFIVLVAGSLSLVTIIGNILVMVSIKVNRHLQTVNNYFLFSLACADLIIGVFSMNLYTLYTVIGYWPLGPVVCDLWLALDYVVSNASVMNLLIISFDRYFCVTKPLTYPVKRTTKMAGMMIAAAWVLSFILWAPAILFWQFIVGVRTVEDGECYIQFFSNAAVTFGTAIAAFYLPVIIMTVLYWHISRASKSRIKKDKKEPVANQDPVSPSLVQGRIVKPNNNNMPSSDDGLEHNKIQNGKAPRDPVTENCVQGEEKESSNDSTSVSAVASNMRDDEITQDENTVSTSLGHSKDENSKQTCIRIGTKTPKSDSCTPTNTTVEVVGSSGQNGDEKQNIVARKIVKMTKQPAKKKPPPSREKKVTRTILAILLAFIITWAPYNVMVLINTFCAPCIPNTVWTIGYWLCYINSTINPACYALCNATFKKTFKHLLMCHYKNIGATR
Description: as §2

ALK4(h) = molecular target: T11, ALK4(h) (Homo sapiens, UniProt P36896); experiment: Kinase panel; assay type: biochemical
T11 construct: purchased Cerep (receptors, ion channels, transporters); Eurofins Panlabs (kinases)
T11 sequence (P36896 24-505): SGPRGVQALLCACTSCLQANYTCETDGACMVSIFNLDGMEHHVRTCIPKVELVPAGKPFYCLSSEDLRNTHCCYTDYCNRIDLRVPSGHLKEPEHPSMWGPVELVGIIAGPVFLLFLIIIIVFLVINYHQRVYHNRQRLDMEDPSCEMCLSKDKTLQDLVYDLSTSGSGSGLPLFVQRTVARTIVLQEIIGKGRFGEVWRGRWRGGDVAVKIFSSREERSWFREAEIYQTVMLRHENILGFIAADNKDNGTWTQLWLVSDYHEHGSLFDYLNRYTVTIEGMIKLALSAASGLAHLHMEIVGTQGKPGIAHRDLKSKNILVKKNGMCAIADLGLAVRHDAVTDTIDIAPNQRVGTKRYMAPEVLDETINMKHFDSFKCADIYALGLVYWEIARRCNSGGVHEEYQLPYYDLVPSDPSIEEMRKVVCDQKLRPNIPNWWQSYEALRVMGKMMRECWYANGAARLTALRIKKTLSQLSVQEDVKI
Description: 28 GPCRs were evaluated through cAMP or calcium FLIPR assays[67]. A panel of 52 different receptors, ion channels and transporters was tested by Cerep, Inc. (Redmond, WA). Kinase selectivity was conducted by Eurofins Panlabs Inc (St Charles, MO).

Aurora-A(h) = molecular target: T12, Aurora-A(h) (Homo sapiens, UniProt O14965); experiment: Kinase panel; assay type: biochemical
T12 construct: purchased Cerep (receptors, ion channels, transporters); Eurofins Panlabs (kinases)
Description: (§3) Kinase selectivity was conducted by Eurofins Panlabs Inc (St Charles, MO).

Aurora-B(h) = molecular target: T13, Aurora-B(h) (Homo sapiens, UniProt Q96GD4); experiment: Kinase panel; assay type: biochemical
T13 construct: purchased Cerep (receptors, ion channels, transporters); Eurofins Panlabs (kinases)
Description: as §3

CK2(h) = molecular target: T14, CK2(h) (Homo sapiens, UniProt P68400); experiment: Kinase panel; assay type: biochemical
T14 construct: purchased Cerep (receptors, ion channels, transporters); Eurofins Panlabs (kinases)
T14 sequence (P68400 whole entry): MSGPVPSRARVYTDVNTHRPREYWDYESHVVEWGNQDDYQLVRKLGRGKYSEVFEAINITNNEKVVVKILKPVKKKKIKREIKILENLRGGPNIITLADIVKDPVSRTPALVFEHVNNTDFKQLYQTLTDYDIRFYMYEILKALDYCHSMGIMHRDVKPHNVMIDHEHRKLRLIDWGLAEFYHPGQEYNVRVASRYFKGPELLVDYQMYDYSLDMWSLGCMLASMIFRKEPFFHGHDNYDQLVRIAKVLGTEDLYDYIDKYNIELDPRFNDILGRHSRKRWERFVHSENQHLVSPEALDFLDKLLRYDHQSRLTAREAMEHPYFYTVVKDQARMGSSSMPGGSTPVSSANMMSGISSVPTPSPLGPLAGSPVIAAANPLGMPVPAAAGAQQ
T14 sequence (P67870 whole entry partner): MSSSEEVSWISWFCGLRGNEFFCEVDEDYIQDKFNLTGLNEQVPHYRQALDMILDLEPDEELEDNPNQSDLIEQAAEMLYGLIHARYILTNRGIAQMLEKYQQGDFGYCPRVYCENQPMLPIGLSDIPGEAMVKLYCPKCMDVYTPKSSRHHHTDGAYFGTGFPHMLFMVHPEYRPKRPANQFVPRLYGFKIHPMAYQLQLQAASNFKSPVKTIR
Description: as §3

EGFR(h) = molecular target: T15, EGFR(h) (Homo sapiens, UniProt P00533); experiment: Kinase panel; assay type: biochemical
T15 construct: purchased Cerep (receptors, ion channels, transporters); Eurofins Panlabs (kinases)
T15 sequence (P00533 25-1210): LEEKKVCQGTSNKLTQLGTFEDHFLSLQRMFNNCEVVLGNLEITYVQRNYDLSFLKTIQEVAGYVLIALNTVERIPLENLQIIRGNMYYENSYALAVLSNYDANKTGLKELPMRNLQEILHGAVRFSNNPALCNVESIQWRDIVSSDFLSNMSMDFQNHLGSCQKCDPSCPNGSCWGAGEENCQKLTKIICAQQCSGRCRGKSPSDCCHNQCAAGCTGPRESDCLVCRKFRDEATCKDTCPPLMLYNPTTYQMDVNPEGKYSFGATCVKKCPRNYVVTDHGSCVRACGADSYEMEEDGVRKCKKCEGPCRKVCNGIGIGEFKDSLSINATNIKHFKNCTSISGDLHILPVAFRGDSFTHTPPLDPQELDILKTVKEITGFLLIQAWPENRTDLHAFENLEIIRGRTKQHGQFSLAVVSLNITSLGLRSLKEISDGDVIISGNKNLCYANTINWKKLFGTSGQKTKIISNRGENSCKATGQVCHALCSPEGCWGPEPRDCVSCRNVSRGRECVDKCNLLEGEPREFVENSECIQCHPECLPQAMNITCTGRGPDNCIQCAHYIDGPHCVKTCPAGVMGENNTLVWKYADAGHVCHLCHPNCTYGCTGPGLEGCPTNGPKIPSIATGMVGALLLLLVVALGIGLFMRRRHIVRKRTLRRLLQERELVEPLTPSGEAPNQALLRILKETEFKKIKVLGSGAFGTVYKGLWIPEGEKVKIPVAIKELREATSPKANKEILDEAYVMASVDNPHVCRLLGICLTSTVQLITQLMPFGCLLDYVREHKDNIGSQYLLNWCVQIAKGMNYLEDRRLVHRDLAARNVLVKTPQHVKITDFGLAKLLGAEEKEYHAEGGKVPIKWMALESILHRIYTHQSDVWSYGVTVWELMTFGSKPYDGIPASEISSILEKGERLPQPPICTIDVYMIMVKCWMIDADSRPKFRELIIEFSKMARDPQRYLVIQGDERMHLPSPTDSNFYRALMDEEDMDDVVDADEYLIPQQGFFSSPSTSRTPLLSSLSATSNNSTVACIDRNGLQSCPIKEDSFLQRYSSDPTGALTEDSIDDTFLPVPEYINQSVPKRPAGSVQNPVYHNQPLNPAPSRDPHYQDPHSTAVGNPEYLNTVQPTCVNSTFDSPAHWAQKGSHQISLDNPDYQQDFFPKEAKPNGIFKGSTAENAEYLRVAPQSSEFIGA
Description: as §3

EphA2(h) = molecular target: T16, EphA2(h) (Homo sapiens, UniProt P29317); experiment: Kinase panel; assay type: biochemical
T16 construct: purchased Cerep (receptors, ion channels, transporters); Eurofins Panlabs (kinases)
Description: as §3

GSK3α(h) = molecular target: T17, GSK3α(h) (Homo sapiens, UniProt P49840); experiment: Kinase panel; assay type: biochemical
T17 construct: purchased Cerep (receptors, ion channels, transporters); Eurofins Panlabs (kinases)
Description: as §3

IR(h) = molecular target: T18, IR(h) (Homo sapiens, UniProt P06213); experiment: Kinase panel; assay type: biochemical
T18 construct: purchased Cerep (receptors, ion channels, transporters); Eurofins Panlabs (kinases)
Description: as §3

PKCα(h) = molecular target: T19, PKCα(h) (Homo sapiens, UniProt P17252); experiment: Kinase panel; assay type: biochemical
T19 construct: purchased Cerep (receptors, ion channels, transporters); Eurofins Panlabs (kinases)
Description: as §3

PKCβI(h) = molecular target: T20, PKCβI(h) (Homo sapiens, UniProt P05771); experiment: Kinase panel; assay type: biochemical
T20 construct: purchased Cerep (receptors, ion channels, transporters); Eurofins Panlabs (kinases)
T20 sequence (P05771 whole entry): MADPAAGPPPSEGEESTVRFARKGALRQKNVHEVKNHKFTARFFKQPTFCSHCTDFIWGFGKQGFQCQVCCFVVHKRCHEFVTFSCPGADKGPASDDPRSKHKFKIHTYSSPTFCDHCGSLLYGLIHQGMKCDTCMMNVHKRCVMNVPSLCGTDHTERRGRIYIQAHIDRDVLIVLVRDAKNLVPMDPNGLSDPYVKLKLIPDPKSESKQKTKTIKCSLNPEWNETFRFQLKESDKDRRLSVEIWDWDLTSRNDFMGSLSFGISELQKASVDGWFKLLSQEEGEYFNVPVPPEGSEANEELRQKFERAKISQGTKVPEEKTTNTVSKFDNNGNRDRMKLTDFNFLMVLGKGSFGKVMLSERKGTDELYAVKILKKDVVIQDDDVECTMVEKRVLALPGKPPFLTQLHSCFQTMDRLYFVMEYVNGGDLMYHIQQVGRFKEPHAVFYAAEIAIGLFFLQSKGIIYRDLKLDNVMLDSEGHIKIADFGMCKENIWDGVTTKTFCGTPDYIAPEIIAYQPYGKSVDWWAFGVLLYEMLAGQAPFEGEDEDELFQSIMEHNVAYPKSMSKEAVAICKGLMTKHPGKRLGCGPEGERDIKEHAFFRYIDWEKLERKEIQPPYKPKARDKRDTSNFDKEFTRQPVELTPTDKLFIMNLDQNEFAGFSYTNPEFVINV
Description: as §3

Rsk3(h) = molecular target: T21, Rsk3(h) (Homo sapiens, UniProt Q15349); experiment: Kinase panel; assay type: biochemical
T21 construct: purchased Cerep (receptors, ion channels, transporters); Eurofins Panlabs (kinases)
Description: as §3

ZIPK(h) = molecular target: T22, ZIPK(h) (Homo sapiens, UniProt O43293); experiment: Kinase panel; assay type: biochemical
T22 construct: purchased Cerep (receptors, ion channels, transporters); Eurofins Panlabs (kinases)
Description: as §3

hNav1.5 = hNav1.5 (Homo sapiens, UniProt Q14524); experiment: follow-up functional study; assay type: cell-based; settings: read-out: IC50 in follow-up functional studies
human whole blood = experiment: in vitro whole blood assay, IL-17A production; assay type: cell-based; settings: human whole blood diluted 1:1; read-out: IC50, inhibition of IL-17A production

CC1CCCN1C(=O)c1nc(C(=O)NCC(C)(C)O)sc1-c1ccc(C(O)(C(F)(F)F)C(F)(F)F)c(Cl)c1Cl (centres unmarked) [JNJ-61803534]
IC50 (TRα): > 1500 nM | IC50 (PPARβ): > 1500 nM | IC50 (ERα): > 1500 nM | IC50 (ERβ): > 1500 nM | IC50 (PR): > 1500 nM | inhibition at 1 µM (CCKA (h) (CCK1)): < 10% | inhibition at 10 µM (CCKA (h) (CCK1)): < 10% | inhibition at 1 µM (H2 (h)): < 10% | inhibition at 10 µM (H2 (h)): 16.6% | inhibition at 1 µM (MC4 (h)): < 10% | inhibition at 10 µM (MC4 (h)): < 10% | inhibition at 1 µM (NK3 (h)): < 10% | inhibition at 10 µM (NK3 (h)): < 10% | inhibition at 1 µM (Y2 (h)): < 10% | inhibition at 10 µM (Y2 (h)): < 10% | inhibition at 1 µM (5-HT5A (h)): < 10% | inhibition at 10 µM (5-HT5A (h)): < 10% | EC50 (5HT1A; agonist): > 12.5 µM | IC50 (5HT1A; antagonist): > 12.5 µM | EC50 (CCKA; agonist): > 10 µM | IC50 (CCKA; antagonist): > 10 µM | EC50 (D1; agonist): > 12.5 µM | IC50 (D1; antagonist): > 12.5 µM | EC50 (D2L; agonist): > 12.5 µM | IC50 (D2L; antagonist): > 12.5 µM | EC50 (M2; agonist): > 12.5 µM | IC50 (M2; antagonist): > 12.5 µM | activity at 1 µM (ALK4(h)): 104% | activity at 10 µM (ALK4(h)): 108% | activity at 1 µM (Aurora-A(h)): 97% | activity at 10 µM (Aurora-A(h)): 102% | activity at 1 µM (Aurora-B(h)): 124% | activity at 10 µM (Aurora-B(h)): 145% | activity at 1 µM (CK2(h)): 109% | activity at 10 µM (CK2(h)): 102% | activity at 1 µM (EGFR(h)): 100% | activity at 10 µM (EGFR(h)): 101% | activity at 1 µM (EphA2(h)): 99% | activity at 10 µM (EphA2(h)): 102% | activity at 1 µM (GSK3α(h)): 93% | activity at 10 µM (GSK3α(h)): 104% | activity at 1 µM (IR(h)): 92% | activity at 10 µM (IR(h)): 89% | activity at 1 µM (PKCα(h)): 102% | activity at 10 µM (PKCα(h)): 99% | activity at 1 µM (PKCβI(h)): 97% | activity at 10 µM (PKCβI(h)): 87% | activity at 1 µM (Rsk3(h)): 107% | activity at 10 µM (Rsk3(h)): 104% | activity at 1 µM (ZIPK(h)): 113% | activity at 10 µM (ZIPK(h)): 120% | IC50 (hNav1.5): > 30 µM | IC50 (human whole blood): 230 ± 110 nM
